From paper PMC11044016 (Journal of the American Chemical Society, 2023)

Experiments:
HBV = assay: Antiviral; format: cell-based; settings: Hepatitis B virus, HePAD38, read-out: IC50 (HBV DNA released from cells)
[1] = Balb/cJ mice, s.c. 75 mg/kg
[2] = terminal cytosine of 3TC; stated without experiment, no reference given; cited from earlier work

Nc1ccn([C@H]2CS[C@@H](CO)O2)c(=O)n1 [3TC, 2’,3’-Dideoxy-3’-Thiacytidine]
IC50 (HBV): 170 nM
3TC plasma concentration after day 3 [1]: no drug detectable
pKa [2]: around 7.2
